Legend:
[1] = tested on: patients suffering from primary hip or knee arthritis (I, II or III); test: Clinical trial: Lequesne algo-functional index of severity; assay type: in vivo, humans; conditions: for Decrease in the Lequesne scale in the 25% of patients with enhanced recovery / Decrease in the Lequesne scale in the 25% of patients with enhanced recovery (percent): 25% of the patients
Description: (§1) Data from a clinical trial with humans is provided herein. The trial was performed with three arms, at random and blind, of patients suffering from different degrees of primary hip or knee arthritis (I, II or III). […] Pain and joint function performance was checked every fifteen days by using the pain VAS and the Lequesne algo-functional index of severity. The VAS assesses the pain in the knee by a visual scale of 100 mm with a total of 10 divisions wherein 0 means no pain and 10 means the deepest pain. […] The severity index is given by the addition of the scores obtained in each item, wherein 24 is the maximum possible score. The higher the index, the more severe is the clinical picture.

[2] = 37° C.; cited from earlier work
[3] = tested on: patients suffering from primary hip or knee arthritis (I, II or III); test: Clinical trial: pain VAS; assay type: in vivo, humans; conditions: check-up visits every fifteen days
Description: as §1

[4] = patients in clinical trials; cited from earlier work

Row | SMILES | Decrease in the Lequesne scale in the 25% of patients with enhanced recovery ([1]; 90 days oral treatment) | Decrease in the Lequesne scale in the 25% of patients with enhanced recovery (percent) ([1]; 90 days oral treatment) | Average improvement in the Lequesne index in 50% of the patients ([1]; 50% of the patients, 90 days oral treatment) | Lequesne scale (Algo-functional index) average decrease ([1]; 90 days, single daily oral dose, 1,500 mg glucosamine sulphate and/or 15 mg meloxicam) | pKa [2] | Time after starting treatment at which VAS value showed the highest reduction [3] | Occurrence of adverse gastrointestinal events (bleeding, perforation or ulcers) versus other nonsteroidal anti-inflammatory drugs [4]
1 | N[C@H]1C(O)O[C@H](CO)[C@@H](O)[C@@H]1O (stereo partly drawn) [glucosamine, 2-amin-2 desoxy-alpha-D-glucose] | 3.75 scores | 32% | 1.5 scores | 11% | 6.91 | 30 days | 
2 | Cc1cnc(NC(=O)C2=C(O)c3ccccc3S(=O)(=O)N2C)s1 [meloxicam, (8E)-8-[hydroxy-[(5-methyl-1,3-thiazol-2-yl)amino]methylidene]-9-methyl-10,10-dioxo-10λ^6-thia-9-azabicyclo[4.4.0]deca-1,3,5-trien-7-one] | 4.5 scores | 38% |  |  |  | 15 days | less frequent

From US8765717B2 (Monte Verde S.A., priority 2008, dated 2014)
